One test concerns the target T1, human GluR1 flip (Homo sapiens, UniProt P42261).
T1 construct: expressed in transfected cells; host or cells: CHO-K1
The test is described as follows: AMPA receptor function-enhancing activity using calcium influx as index (CHO-K1/GluR1 flip/stargazin-expressing cells). It is filed as cell-based. Conditions: CHO-K1, test compound 30 μM with 3 mM glutamic acid, 100% = 3 mM glutamic acid + 300 μM cyclothiazide, 0% = 3 mM glutamic acid alone, read-out: hGluR1 flip/30 μM (%). The text has this: Experimental Example 1 Measurement method of AMPA receptor function-enhancing activity of compound using calcium influx as index
(1) Construction of Expression Gene
Human GluR1 flip cDNA was amplified by PCR method using forward primer […] (SEQ ID NO: 1) and reverse primer […] (SEQ ID NO: 2) artificially synthesized using human brain-derived cDNA (BD Bioscience) as a template. The amplified product was digested with restriction enzymes EcoRI, NotI (TAKARA SHUZO CO. LTD.) and incorporated into the same site of pcDNA3.1(+) (Invitrogen) to construct pcDNA3.1(+)/human GluR1 flip gene. Human stargazin cDNA was amplified by PCR method using forward primer […] (SEQ ID NO: 3) and reverse primer […] (SEQ ID NO: 4) artificially synthesized using human hippocampus cDNA as a template. The amplified product was digested with restriction enzymes XhoI, BamHI (TAKARA SHUZO CO. LTD.) and incorporated into the same site of pcDNA3.1(−) (Invitrogen) to construct pcDNA3.1 Zeo(−)/human stargazing gene.
(2) Construction of GluR1 Flip/Stargazin Expressing Cell
CHO-K1 cells passaged in a culture medium (Ham's F12 medium (Invitrogen) added with 10% inactivated fetal bovine serum (Morgate) and penicillin, streptomycin (Invitrogen)) were detached using 0.05% trypsin and 0.53 mM EDTA (Invitrogen) diluted with D-PBS(−). The detached cells were suspended in a culture medium, and recovered by centrifugation at 1,000 rpm. The recovered cells were re-suspended in D-PBS(−) and added into 0.4 cm electroporation cuvette (BioRad). pcDNA3.1(+)/human GluR1 flip gene (5 μg) and pcDNA3.1 Zeo(−)/human stargazin gene (15 μg) were added, and introduced into CHO-K1 cells under the conditions of 950 μFd, […] and using Gene Pulser II (BioRad). The introduced cells were cultured overnight in a culture medium. The next day, using a selection medium (culture medium added with zeocin (Invitrogen) at 250 μg/mL), the cells were plated in a 96 well plate at 250 cells/well. The clones showing drug resistance were selected, and GluR1 flip/stargazin expression clones were selected by an assay method shown below using calcium influx as an index.
(3) Measurement Method of AMPA Receptor Function-Enhancing Activity of Compound, Using Calcium Influx as an Index
CHO-K1/GluR1 flip/stargazin-expressing cells were plated on a 384 well black bottom transparent plate, and cultured for 2 days in a CO2 incubator (SANYO ELECTRIC Co. Ltd.) at 37° C. The medium of the cell plate was removed. A calcium indicator (Calcium5 Assay Kit, Molecular Devices) was diluted with an assay buffer (HBSS (Thermo Fisher Scientific), 0.1% BSA (Merck Millipoer) and 10 mM HEPES (Thermo Fisher Scientific)), and 1.25 mM probenecid (Dojindo Laboratories) was added thereto. The mixture prepared above was added at 30 μL/well (100 μL/well in case of 96 wells) to the well, and the well was left standing in 37° C., CO2 incubator for 1 hr. The cell plate was set in CellLux (PerkinElmer), a mixture (15 μL) (50 μL/well in case of 96 wells) of […] glutamic acid (final concentration 3 mM) diluted with an assay buffer and a test compound (test compound concentration 30 μM) was added thereto, and variation in the amount of fluorescence was measured for 3 min. The variation of fluorescence level of a well added with final concentration 3 mM of glutamic acid and 300 μM cyclothiazide (TOCRIS) was defined as 100%, the variation of fluorescence level of a well added with final concentration 3 mM of glutamic acid alone was defined as 0%, and the activity of the compound was calculated by the following formula. activity (%)=(X−C)/(T−C)×100 • T: variation of fluorescence level of well added with final concentration 3 mM of glutamic acid and 300 μM cyclothiazide • C: variation of fluorescence level of well added with final concentration 3 mM of glutamic acid alone • X: variation of fluorescence level of well added with test compound

The test system of a further test is Long Evans rats. Description: Novel object recognition test. It is filed as in vivo, rat. The note with it: male Long Evans rats; for Novel Object Interaction (%): 1 mg/kg p.o. 1 hr before acquisition trial and 1 hr before retention trial, retention trial 48 hr after acquisition, mean ± standard error; for novel object interaction (result in words): 1 mg/kg p.o., versus 0 mg/kg. The source says: Experimental Example 2 Novel Object Recognition Test
Male Long Evans rats were supplied by Japan SLC, and used at 7-week-old in the experiments. After arrival to the vivarium, animals were allowed a minimum of 1 week for acclimation. They were housed under a 12:12-h light/dark cycle in a temperature- and humidity-controlled laboratory and allowed food and water ad libitum.
A test compound was suspended in 0.5% methylcellulose in distilled water and orally administered (p.o.). All test compounds were dosed in a volume of 2 mL/kg body weight for rats.
(3) Novel Object Recognition Test
Novel object recognition test is a test system utilizing the novel object preference characteristics of rodents. This novel object recognition test consists of two trials, “acquisition trial” and “retention trial”, and, when an interval between these two trials is short, rodents spend a longer period for novel object exploration behaviors, and the preference dissipates as the interval gets longer. From this, the behavioral change in the novel object recognition test is considered to reflect the rodents' memory of the object during the acquisition trial. In this experimental example, the retention trial was carried out 48 hr after the acquisition trial. On the day before the test, for acclimation, Long-Evans rats were allowed to freely move about the test box (40×40×50 cm) for 10 minutes. On the test day, the rats were acclimated to the test room for about 1 hr prior to the test. The test compound (Compound A (Example 10), Compound B (Example 35), 1 mg/kg) were orally administered to the rats twice 1 hr before the acquisition trial and 1 hr before the retention trial. For the acquisition trial, two identical objects (A1, A2) were placed in the test box. The rats were put in the test box for 3 min, and the duration contacting each object was measured. The retention trial was carried out 48 hr after the acquisition trial. For the retention trial, the familiar object (A3) used for the acquisition trial and the novel object (B) different shape from A3 were placed in the test box. The rats were put in the test box for 3 min. The duration contacting each object in the acquisition trial and the retention trial, and the novel object interaction (%) was calculated. The novel object interaction (%) was expressed as (the duration contacting the novel object)/[(the duration contacting the novel object)+(the duration contacting the familiar object)]×100(%) at mean±standard error.

The structures appear in SMILES notation.

These results are taken from patent US11939327B2, “Heterocyclic compounds” (Takeda Pharmaceutical Company Limited, priority 2017, dated 2024).

T1 sequence (P42261 19-906 isoform P42261-2 limits assumed): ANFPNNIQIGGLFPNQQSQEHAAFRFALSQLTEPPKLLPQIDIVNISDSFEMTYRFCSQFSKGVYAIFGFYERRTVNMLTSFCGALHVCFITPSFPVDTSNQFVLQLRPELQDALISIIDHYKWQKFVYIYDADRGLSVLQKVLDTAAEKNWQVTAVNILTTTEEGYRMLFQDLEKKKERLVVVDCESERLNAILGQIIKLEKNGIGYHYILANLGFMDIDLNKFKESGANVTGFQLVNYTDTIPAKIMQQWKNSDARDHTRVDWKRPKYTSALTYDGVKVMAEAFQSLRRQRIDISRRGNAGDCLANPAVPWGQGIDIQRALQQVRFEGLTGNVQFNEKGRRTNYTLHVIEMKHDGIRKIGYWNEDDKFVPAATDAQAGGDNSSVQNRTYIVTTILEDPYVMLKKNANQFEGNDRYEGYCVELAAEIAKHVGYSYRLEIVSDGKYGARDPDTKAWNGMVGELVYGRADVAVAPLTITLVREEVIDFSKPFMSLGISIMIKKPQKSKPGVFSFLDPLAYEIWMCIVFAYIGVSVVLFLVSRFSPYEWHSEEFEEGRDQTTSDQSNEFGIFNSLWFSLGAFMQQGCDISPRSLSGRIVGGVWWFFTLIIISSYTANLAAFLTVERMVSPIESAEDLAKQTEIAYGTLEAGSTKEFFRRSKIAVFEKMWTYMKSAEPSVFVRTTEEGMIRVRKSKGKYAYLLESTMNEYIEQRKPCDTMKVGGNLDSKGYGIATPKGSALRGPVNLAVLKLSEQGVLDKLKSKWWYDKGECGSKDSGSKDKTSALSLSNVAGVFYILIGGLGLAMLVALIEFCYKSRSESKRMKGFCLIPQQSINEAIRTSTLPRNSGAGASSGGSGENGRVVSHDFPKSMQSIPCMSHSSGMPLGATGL
T1 sequence (Q9Y698 whole entry partner): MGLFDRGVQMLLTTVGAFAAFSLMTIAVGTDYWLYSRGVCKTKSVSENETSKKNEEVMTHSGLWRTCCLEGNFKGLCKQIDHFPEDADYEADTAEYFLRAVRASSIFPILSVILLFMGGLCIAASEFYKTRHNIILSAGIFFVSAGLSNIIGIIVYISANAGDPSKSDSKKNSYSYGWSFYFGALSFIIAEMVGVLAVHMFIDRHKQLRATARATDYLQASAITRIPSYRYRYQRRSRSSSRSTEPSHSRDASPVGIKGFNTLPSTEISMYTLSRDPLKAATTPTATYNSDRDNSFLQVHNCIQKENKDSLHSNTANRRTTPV

Consider `O=C(c1ccc(-c2nccc3c2nc(C(F)(F)F)n3CC(F)F)cc1F)N1CCOCC1` [Example 10, (4-(1-(2,2-difluoroethyl)-2-(trifluoromethyl)-1H-imidazo[4,5-c]pyridin-4-yl)-2-fluorophenyl)(morpholin-4-yl)methanone], for which, on human GluR1 flip, the activation at 30 µM is 90.5%. Moreover, in the test on Long Evans rats, the “Novel Object Interaction (%)” value is 56.32 ± 1.56% and the “novel object interaction (result in words)” value is “increased”.

In the case of `O=C(c1ncc(-c2cccc3c2nc(C(F)(F)F)n3CC(F)F)cc1F)N1CCOCC1` [Example 35, (5-(1-(2,2-difluoroethyl)-2-(trifluoromethyl)-1H-benzimidazol-4-yl)-3-fluoropyridin-2-yl)(morpholin-4-yl)methanone], the activation at 30 µM on human GluR1 flip came out at 81.2%. In the test with Long Evans rats, the “Novel Object Interaction (%)” value is given as 61.28 ± 2.35% and the “novel object interaction (result in words)” value is “increased”.

Regarding `O=C(c1ccc(-c2cccc3c2nc(C(F)(F)F)n3CC(F)F)cn1)N1CCOCC(F)(F)C1` [Example 39, (5-(1-(2,2-difluoroethyl)-2-(trifluoromethyl)-1H-benzimidazol-4-yl)pyridin-2-yl)(6,6-difluoro-1,4-oxazepan-4-yl)methanone], at human GluR1 flip, the activation at 30 µM was 110%.

As to `O=C(c1ccc(-c2nccc3c2nc(C(F)(F)F)n3CC(F)F)c(F)c1F)N1CCOCC1` [Example 42, (4-(1-(2,2-difluoroethyl)-2-(trifluoromethyl)-1H-imidazo[4,5-c]pyridin-4-yl)-2,3-difluorophenyl)(morpholin-4-yl)methanone], the activation at 30 µM on human GluR1 flip came out at 83.9%.

Regarding `C[C@@H]1CN(C(=O)c2ccc(-c3nccc4c3nc(C(F)(F)F)n4CC(F)F)cc2F)CCO1` [Example 44, (4-(1-(2,2-difluoroethyl)-2-(trifluoromethyl)-1H-imidazo[4,5-c]pyridin-4-yl)-2-fluorophenyl)((2R)-2-methylmorpholin-4-yl)methanone], the activation at 30 µM on human GluR1 flip was determined as 85.5%.

Take `O=C(c1ccc(-c2cccc3c2nc(C(F)(F)F)n3CC(F)F)nc1)N1CCOCC(F)(F)C1` [Example 46, (6-(1-(2,2-difluoroethyl)-2-(trifluoromethyl)-1H-benzimidazol-4-yl)pyridin-3-yl)(6,6-difluoro-1,4-oxazepan-4-yl)methanone]: the activation at 30 µM at human GluR1 flip was determined as 77%.

On to `O=C(c1ccc(-c2nccc3c2nc(C(F)(F)F)n3CC(F)F)cc1F)N1CCOCC2(CC2)C1` [Example 48, (4-(1-(2,2-difluoroethyl)-2-(trifluoromethyl)-1H-imidazo[4,5-c]pyridin-4-yl)-2-fluorophenyl)(5-oxa-8-azaspiro[2.6]non-8-yl)methanone], for which the activation at 30 µM on human GluR1 flip was 80.2%.

Take `O=C(c1ccc(-c2nccc3c2nc(C(F)(F)F)n3CC(F)F)cc1)N1CCOCC(F)(F)C1` [Example 50, (4-(1-(2,2-difluoroethyl)-2-(trifluoromethyl)-1H-imidazo[4,5-c]pyridin-4-yl)phenyl)(6,6-difluoro-1,4-oxazepan-4-yl)methanone]: the activation at 30 µM on human GluR1 flip stood at 122%.

`O=C(c1ccc(-c2cccc3c2nc(C(F)(F)F)n3CC(F)F)c(F)c1)N1CCOCC1` [Example 51, (4-(1-(2,2-difluoroethyl)-2-(trifluoromethyl)-1H-benzimidazol-4-yl)-3-fluorophenyl)(morpholin-4-yl)methanone]: at human GluR1 flip, the activation at 30 µM was 113%.

As to `COC1CCN(C(=O)c2ccc(-c3nccc4c3nc(C(F)(F)F)n4CC(F)F)cc2F)CC1` [Example 52, (4-(1-(2,2-difluoroethyl)-2-(trifluoromethyl)-1H-imidazo[4,5-c]pyridin-4-yl)-2-fluorophenyl)(4-methoxypiperidin-1-yl)methanone], the activation at 30 µM on human GluR1 flip was found to be 67.1%.

With `O=C(c1ccc(-c2nccc3c2nc(C(F)(F)F)n3CC(F)F)c(F)c1)N1CCOCC1` [Example 53, (4-(1-(2,2-difluoroethyl)-2-(trifluoromethyl)-1H-imidazo[4,5-c]pyridin-4-yl)-3-fluorophenyl)(morpholin-4-yl)methanone], the activation at 30 µM at human GluR1 flip was determined as 69%.
